# Reference: US12350270B2, “Antimalarial agents” (Merck Sharp & Dohme LLC, priority 2019, dated 2025)
# Tested on: parasites (ring stage, in human red blood cell culture)
# Assay: Parasite LDH growth assay (antiparasite potency, Parasite Assay)
# Assay type: cell-based, Plasmodium falciparum
# Settings: 0.7% rings, 2% haematocrit, 72 hours at 37° C., LDH readout of parasite growth
# How it was run: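 Ring-stage parasites at 0.7% parasitemia and 2% haematocrit, in RPMI-Hepes/bicarbonate with 5% heat-inactivated human serum and 0.5% albumax, were added to compound-containing medium. Cultures grew 72 h at 37 °C in gassed humidified boxes. Plates were then frozen overnight at −80 °C, thawed 4 h, and growth was measured by LDH assay.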
row,Compound,EC50 [nM]
1,"CCC1(CC)CC(=O)N([C@@H]2CCOc3ccc(C(=O)NC4c5ccccc5OCC4O)cc32)C(=N)N1 (single isomer, unassigned) [Example 8A]",10
2,"CCC1(CC)CC(=O)N([C@H]2c3cc(C(=O)N[C@@H]4c5ccccc5OC(C)(C)[C@H]4O)ccc3OCC2OC)C(=N)N1 (stereo partly drawn) [Example 67B, (3R,4S)-4-(4,4-diethyl-2-imino-6-oxotetrahydropyrimidin-1(2H)-yl)-N-((3S,4R)-3-hydroxy-2,2-dimethylchroman-4-yl)-3-methoxychromane-6-carboxamide]",0.8
3,"CCC1C[C@@H](N2C(=N)NC(CC)(CC)CC2=O)c2cc(C(=O)N[C@@H]3c4ccccc4C[C@H]3O)ccc2O1 (single isomer, unassigned) [Example 9A]",0.9
4,"CCC1(CC)CC(=O)N([C@@H]2CCOc3ccc(C(=O)NC4c5cc(F)ccc5OCC4(C)O)cc32)C(=N)N1 (single isomer, unassigned) [Example 226C]",273
5,"COCC1(C)Oc2ccc(C(=O)N[C@@H]3c4ccccc4OC(C)(C)[C@H]3O)cc2C1N1C(=N)NC(C)(C)CC1=O (stereo partly drawn) [Example 256, N-[(3S,4R)-3-hydroxy-2,2-dimethyl-chroman-4-yl]-3-(2-imino-4,4-dimethyl-6-oxo-hexahydropyrimidin-1-yl)-2-(methoxymethyl)-2-methyl-3H-benzofuran-5-carboxamide]",8.9

# Same assay, conditions: Plasmodium falciparum, Erythrocyte, 72 h, 0.7% rings, 2% haematocrit, 72 hours at 37° C., LDH readout of parasite growth
row,Compound,EC50 [nM]
1,"CCC1(CC)CC(=O)N(C2c3cc(C(=O)N[C@H]4CC(C)(C)Oc5ccccc54)ccc3OCC2O)C(=N)N1 (stereo partly drawn) [Example 207, 4-(4,4-diethyl-2-imino-6-oxo-hexahydropyrimidin-1-yl)-N-[(4S)-2,2-dimethylchroman-4-yl]-3-hydroxy-chromane-6-carboxamide]",22
2,"CC[C@]1(C)CC(=O)N([C@@H]2CCOc3ccc(C(=O)N[C@@H]4C[C@H](COC(F)F)Oc5ccccc54)cc32)C(=N)N1 [Example 268, (4R)-N-[(2R,4R)-2-(difluoromethoxymethyl)chro-man-4-yl]-4-[(4R)-4-ethyl-2-imino-4-methyl-6-oxo-hexahydropyrimidin-1-yl]chromane-6-carboxamide]",25
3,"CCC1(CC)CC(=O)N([C@H]2c3cc(C(=O)N[C@@H]4c5cc(C#N)ccc5OC[C@@]4(C)O)ccc3OC[C@H]2COC)C(=N)N1 [Example 301, (3R,4R)-N-[(3S,4R)-6-cyano-3-hydroxy-3-methyl-chroman-4-yl]-4-(4,4-diethyl-2-imino-6-oxo-hexahydropyrimidin-1-yl)-3-(methoxymethyl)chromane-6-carboxamide]",1.8
4,"COC1COc2ccc(C(=O)N[C@@H]3c4ccccc4C[C@@]3(C)O)cc2C1N1C(=N)NC(C)(C)CC1=O (stereo partly drawn) [Example 143, N-[(1R,2R)-2-hydroxy-2-methyl-indan-1-yl]-4-(1-imino-4,4-dimethyl-6-oxo-hexahydropyrimidin-1-yl)-3-methoxy-chromane-6-carboxamide]",178
5,"CCC1(CC)CC(=O)N(C2c3cc(C(=O)N[C@@H]4c5ccccc5C[C@H]4O)ccc3OC2(COC)COC)C(=N)N1 (stereo partly drawn) [Example 285, 3-(4,4-diethyl-2-imino-6-oxo-hexahydropyrimidin-1-yl)-N-[(1R,2R)-2-hydroxyindan-1-yl]-2,2-bis(methoxymethyl)-3H-benzofuran-5-carboxamide]",35.5
6,"CC(C)[C@]1(C)CC(=O)N([C@@H]2CC(C)(C)Oc3ccc(C(=O)N[C@@H]4c5cc(F)ccc5OC(C)(C)[C@H]4O)cc32)C(=N)N1 [Example 41A, (R)-N-((3 S,4R)-6-fluoro-3-hydroxy-2,2-dimethylchroman-4-yl)-4-((S)-2-imino-4-isopropyl-4-methyl-6-oxotetrahydropyrimidin-1(2H)-yl)-2,2-dimethylchromane-6-carboxamide]",2.8
7,"CCC1(CC)CC(=O)N([C@@H]2CCOc3ccc(C(=O)N[C@H]4c5cc(F)ccc5OC[C@@H]4O)cc32)C(=N)N1 [Example 192, (4R)-4-(4,4-diethyl-2-imino-6-oxo-hexahydropyrimidin-1-yl)-N-[(3R,4S)-6-fluoro-3-hydroxy-chroman-4-yl]chromane-6-carboxamide]",232
8,"CCC1(CC)CC(=O)N(C2c3cc(C(=O)N[C@@H]4c5ccccc5OC[C@@]4(C)O)ccc3OC2(COC)COC)C(=N)N1 (stereo partly drawn) [Example 305, 3-(4,4-diethyl-2-imino-6-oxo-hexahydropyrimidin-l-yl)-N-[(3S,4R)-3-hydroxy-3-methyl-chroman-4-yl]-2,2-bis(methoxymethyl)-3H-benzofuran-5-carboxamide]",75.8
9,"CC1(C)CC(=O)N([C@@H]2CCOc3ccc(C(=O)N[C@H]4c5ccccc5OC(C)(C)[C@]4(C)O)cc32)C(=N)N1 [Example 184, (4R)-N-[(3R,4S)-3-hydroxy-2,2,3-trimethyl-chroman-4-yl]-4-(2-imino-4,4-dimethyl-6-oxo-hexahydropyrimidin-1-yl)chromane-6-carboxamide]",105
10,"CCC1(CC)CC(=O)N([C@@H]2C[C@@H](C)Oc3ccc(C(=O)N[C@@H]4c5ccccc5OC(C)(C)[C@H]4O)cc32)C(=N)N1 [Example 246, (2R,4R)-4-(4,4-diethyl-2-imino-6-oxo-hexahydropyrimidin-1-yl)-N-[(3S,4R)-3-hydroxy-2,2-dimethyl-chroman-4-yl]-2-methyl-chromane-6-carboxamide]",2
11,"CC1(C)CC(=O)N([C@@H]2CCOc3ccc(C(=O)N[C@@H]4c5cc(Cl)ccc5OC[C@@]4(C)O)cc32)C(=N)N1 [Example 195, (4R)-N-[(3S,4R)-6-chloro-3-hydroxy-3-methyl-chroman-4-yl]-4-(2-imino-4,4-dimethyl-6-oxo-hexahydropyrimidin-1-y)chromane-6-carboxamide]",3.5
12,"CC[C@]1(C)CC(=O)N([C@@H]2CCc3ccc(C(=O)N[C@@H]4c5ccccc5C[C@H]4O)cc32)C(=N)N1 [Example 81, (3R)-3-[(4R)-4-ethyl-2-imino-4-methyl-6-oxo-hexahydropyrimidin-1-yl]-N-[(1R,2R)-2-hydroxyindan-1-yl]indane-5-carboxamide]",6.6
13,"CCC1(CC)CC(=O)N([C@@H]2CCOc3ccc(C(=O)N[C@@H]4c5cc(F)ccc5OC[C@H]4O)cc32)C(=N)N1 [Example 191, (4R)-4-(4,4-diethyl-2-imino-6-oxo-hexahydropyrimidin-1-yl)-N-[(3S,4R)-6-fluoro-3-hydroxy-chroman-4-yl]chromane-6-carboxamide]",2.6
14,"CCC1(CC)CC(=O)N([C@@H]2CCOc3ccc(C(=O)N[C@H]4c5cc(F)ccc5C[C@@H]4O)cc32)C(=N)N1 [Example 147, (4R)-4-(4,4-diethyl-2-imino-6-oxo-hexahydropyrimidin-1-yl)-N-[(1S,2S)-6-fluoro-2-hydroxy-indan-1-yl]chromane-6-carboxamide]",160
15,"CC1(C)CC(=O)N([C@@H]2CCc3ccc(C(=O)N[C@@H]4c5ccccc5C[C@@]4(C)O)cc32)C(=N)N1 [Example 80, (3R)-N-[(1R,2R)-2-hydroxy-2-methyl-indan-1-yl]-3-(2-imino-4,4-dimethyl-6-oxo-hexahydropyrimidin-1-yl)indane-5-carboxamide]",18
16,"CC[C@]1(C)CC(=O)N(C2CC(C)Oc3ccc(C(=O)N[C@@H]4c5ccccc5OC(C)(C)[C@H]4O)cc32)C(=N)N1 (stereo partly drawn) [Example 210, 4-[(4R)-4-ethyl-2-imino-4-methyl-6-oxo-hexahydropyrimidin-1-yl]-N-[(3S,4R)-3-hydroxy-2,2-dimethyl-chroman-4-yl]-2-methyl-chromane-6-carboxamide]",195
17,"CCC1(CC)CC(=O)N([C@@H]2CCOc3ccc(C(=O)NC4CC(=O)Oc5ccccc54)cc32)C(=N)N1 (stereo partly drawn) [Example 63A, (4R)-4-(4,4-diethyl-2-imino-6-oxotetrahydropyrimidin-1(2H)-yl)-N-(2-oxochroman-4-yl)chromane-6-carboxamide]",220
18,"CCC1(CC)CC(=O)N(C2c3cc(C(=O)N[C@@H]4c5ccccc5C[C@]4(C)O)ccc3OCC2OC)C(=N)N1 (stereo partly drawn) [Example 213, 4-(4,4-diethyl-2-imino-6-oxo-hexahydropyrimidin-1-yl)-N-[(1R,2S)-2-hydroxy-2-methyl-indan-1-yl]-3-methoxy-chromane-6-carboxamide]",9
19,"C[C@@H]1Cc2ccc(C(=O)N[C@@H]3c4ccccc4OC(C)(C)[C@H]3O)cc2[C@@H]1N1C(=N)NC(C)(C)CC1=O [Example 135, (2R,3R)-N-[(3S,4R)-3-hydroxy-2,2-dimethyl-chroman-4-yl]-3-(2-imino-4,4-dimethyl-6-oxo-hexahydropyrimidin-1-yl)-2-methyl-indane-5-carboxamide]",0.9
20,"CCC1(CC)CC(=O)N(C2CC(C(=O)N(C)C)Oc3ccc(C(=O)N[C@@H]4c5ccccc5OC(C)(C)[C@H]4O)cc32)C(=N)N1 (stereo partly drawn) [Example 306, 4-(4,4-diethyl-2-imino-6-oxo-hexahydropyrimidin-1-yl)-N6-[(3S,4R)-3-hydroxy-2,2-dimethyl-chroman-4-yl]-N2,N2-dimethyl-chromane-2,6-dicarboxamide]",27.4
21,"CC[C@]1(C)CC(=O)N(C2c3cc(C(=O)N[C@@H]4c5ccccc5OC(C)(C)[C@H]4O)ccc3OCC2(C)OC)C(=N)N1 (stereo partly drawn) [Example 284, 4-[(4R)-4-ethyl-2-imino-4-methyl-6-oxo-hexahydropyrimidin-1-yl]-N-[(3S,4R)-3-hydroxy-2,2-dimethyl-chroman-4-yl]-3-methoxy-3-methyl-chromane-6-carboxamide]",8.5
22,"CCC1(CC)CC(=O)N([C@H]2c3cc(C(=O)N[C@@H]4c5ccccc5CC[C@H]4O)ccc3O[C@@]2(C)COC)C(=N)N1 [Example 249, (2R,3S)-3-(4,4-diethyl-2-imino-6-oxo-hexahydropyrimidin-1-yl)-N-[(1R,2R)-2-hydroxytetralin-1-yl]-2-(methoxymethyl)-2-methyl-3H-benzofuran-5-carboxamide]",1.1
23,"CC1(C)CC(=O)N([C@H]2c3cc(C(=O)N[C@@H]4c5ccccc5OC(C)(C)[C@H]4O)ccc3CC2(C)C)C(=N)N1 [Example 162, (3R)-N-[(3S,4R)-3-hydroxy-2,2-dimethyl-chroman-4-yl]-3-(2-imino-4,4-dimethyl-6-oxo-hexahydropyrimidin-1-yl)-2,2-dimethyl-indane-5-carboxamide]",7.5
